Experiment in all cases: NCI tumour cell line growth inhibition, 48 h
The subject of test [1] is A549 NSCLC.
Test [2] deals with KM12 colon.
For test [3], the system named is EKVX NSCLC.
The test system of test [4] is SF-268 CNS.
For test [5], the system named is RPMI-8226 leukemia.
Test [6] has as its system NCI-H460 lung.
Test [7] has as its system SR leukemia.
Test [8] relates to U251 CNS.
For test [9], the system named is CAKI-1 renal.
For test [10], the system named is HL-60(TB) leukemia.

This passage reports GI50 and TGI results from PubChem BioAssay (NCI).

Each structure is given as a SMILES string.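 Where inhibition never reached the appropriate level, the endpoint shown equals the highest concentration tested. Otherwise, values were interpolated linearly from a five-concentration, 48-hour dose response in 96-well plates. GI50: concentration for 50% inhibition of growth. TGI marks complete inhibition of growth.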

`Cn1cnc([N+](=O)[O-])c1S(=O)(=O)Oc1cccc2ccccc12`: the GI50 in test [1] was 17.5 µM; in test [2], 10.4 µM; in test [3] it was 13.9 µM; in test [4], 7.06 µM; in test [5] it was 2680 nM; in test [6], 14.7 µM. In addition, the GI50 is 1.74 µM in test [7], 8.89 µM in test [8], 1.76 µM in test [9] and 5.34 µM in test [10]. Further, the TGI in [1] was determined as 52.4 µM; in test [2] it was 31.4 µM; in test [3] it was 34.8 µM; in [4], 33.4 µM; in test [5], 6.69 µM; in test [6] it was 36 µM. The TGI was 4.57 µM in test [7], 34.7 µM in test [8], 4.07 µM in test [9] and 31.4 µM in test [10].

Take `O=C(/C=C/c1ccc(Cl)cc1)c1ccc(Nc2ccnc3cc(Cl)ccc23)cc1`: the GI50 was > 100 µM in [1]; 4.61 µM in [2]; > 84.6 µM in [3]; > 84 µM in [4]; 2080 nM in test [5]; > 57.6 µM in test [6]. For the same compound, the GI50 in test [7] is 0.565 µM; in [8], 28.8 µM; in test [10] it was 9.16 µM. Besides, the TGI in test [1] was > 100 µM; in test [2] it was 44.3 µM; in test [3] it was > 100 µM; in test [4], > 100 µM; in [5], > 30.7 µM; in test [6] it was > 100 µM. Also, the TGI in test [7] is > 100 µM; in [8], > 100 µM; in [9], > 100 µM; in [10] it was 59.6 µM.

Take `CC(C)C(C)/C=C\C(C)C1CCC2C3=CC=C4CC(O)CCC4(C)C3CCC21C` (stereo unspecified): the TGI in test [1] was > 100 µM; in [2], > 100 µM; in test [3], > 64.8 µM; in test [4], > 70.2 µM; in test [5], > 100 µM; in [6], > 53.3 µM. The TGI in test [7] was > 61.8 µM; in test [8], > 47.7 µM; in [9], > 60.4 µM; in [10] it was > 77.7 µM.

`CSc1nc(NC2OCC(OC(C)=O)C(OC(C)=O)C2OC(C)=O)c(N=CC=Nc2c(NC3OCC(OC(C)=O)C(OC(C)=O)C3OC(C)=O)nc(SC)[nH]c2=O)c(=O)[nH]1` (stereo unspecified): the TGI in test [1], in [2], in [3], in [4], in [5] and in test [6] was > 100 µM throughout. Further, the TGI in test [7], in [8], in test [9] and in [10] was > 100 µM in each case.

As to `Brc1ccccc1C1SCc2nc3ccccc3n21` (stereo unspecified), the TGI in test [1] was > 100 µM; in [2], 43.4 µM; in test [3] it was 45.6 µM; in [4], 66.1 µM; in test [5], > 100 µM; in test [6], 44.5 µM. Besides, the TGI in [7] was 45.1 µM; in [8] it was 29.7 µM; in [9], 61.2 µM; in [10], 34.1 µM.

Turning to `CC(C)(C)OC(=O)N[C@H]1CC2(C=C(Cl)C(=O)C(Cl)=C2)OC1=O`, the TGI in test [1] is > 100 µM; in test [2], 32 µM; in test [3], 40.9 µM; in [4], 32.3 µM; in test [5], 19.8 µM; in test [6], 56.2 µM. For the same compound, the TGI is > 25 µM in test [7], 45.2 µM in test [8], 26.5 µM in test [9] and 6.53 µM in [10].

`O=C(/C=C\c1ccc(Cl)c(Cl)c1)c1ccc(Cl)cc1Cl`: the TGI in test [1] worked out at 60.7 µM; in [2], 25.2 µM; in [3], 56.2 µM; in [4] it was 55.1 µM; in test [5], 41.4 µM; in test [6] it was 54.8 µM. The TGI in test [8] is 40.6 µM; in test [9], > 100 µM; in test [10] it was 23.3 µM. The GI50 in test [5] is 2350 nM; in test [7] it was 7.87 µM; in [10], 3.46 µM.

Turning to `CCOC(=O)CC(=O)ON(C)C(C)=O`, the TGI in test [1], in [2], in test [3], in [4], in test [5] and in [6] was > 100 µM throughout. The TGI in [7], in test [8], in test [9] and in test [10] was > 100 µM each time.

Consider `Cc1cc2c(cc1Cl)SC(N(N(C)C)S(=O)(=O)c1ccc(Cl)cc1)=NS2(=O)=O`, for which the GI50 in [1] is 20.3 µM; in [2], 22.9 µM; in [3], 26.6 µM; in [4] it was 32.4 µM; in [5] it was 12500 nM; in [6], 16.9 µM. The GI50 in [7] is 23.3 µM; in test [8], 26.3 µM; in [9], 30.5 µM; in [10], 35.2 µM. The TGI in [1] was > 100 µM; in test [2], > 100 µM; in test [3] it was 79.6 µM; in [4] it was > 100 µM; in test [5] it was > 100 µM; in [6] it was 45.5 µM. The TGI in test [7] is 91.7 µM; in test [8], > 100 µM; in [9] it was 66.6 µM; in [10], 89.8 µM.
